The nature of the series: Drug transport across human CACO-2 cells. In kind it is in vitro ADME. The text has this:
Assay for Determination of Drug Transport Across Human CACO-2 Cells
The assay provides information on the potential of a compound to pass the cell membrane, on the extent of oral absorption as well as on whether the compound is actively transported by uptake and/or efflux transporters. For the measurement of permeability across polarized, confluent human cancer colon carcinoma cells 2 (Caco-2) cell monolayers grown on permeable filter supports are used as the in vitro absorption model. Apparent permeability coefficients (PE) of the compounds across the Caco-2 monolayers are measured (pH 7.2, 37° C.) in apical-to-basal (AB) (absorptive) and basal-to-apical (BA) (secretory) transport direction. AB permeability (PEAB) represents drug absorption from the intestine into the blood and BA permeability (PEBA) drug secretion from the blood back into the intestine via both passive permeability as well as active transport mechanisms mediated by efflux and uptake transporters that are expressed on the Caco-2 cells. The compounds are assigned to permeability/absorption classes by comparison of the AB permeabilities with the AB permeabilities of reference compounds with known in vitro permeability and oral absorption in the human. Identical or similar permeabilities in both transport directions indicate passive permeation, vectorial permeability points to additional active transport mechanisms. […] Active transport is concentration-dependently saturable.
Caco-2 cells (1−2*10^5 cells/cm^2 area) are seeded on filter inserts (Costar transwell polycarbonate or PET filters, […] pore size) and cultured (DMEM) for 10 to 25 days. Compounds are dissolved in appropriate solvent (like DMSO, 1-20 mM stock solutions). Stock solutions are diluted with HTP-4 buffer (128.13 mM NaCl, 5.36 mM KCl, 1 mM MgSO4, 1.8 mM CaCl2, 4.17 mM NaHCO3, 1.19 mM Na2HPO4×7H2O, 0.41 mM NaH2PO4×H2O, 15 mM HEPES, 20 mM glucose, pH 7.2) to prepare the transport solutions (typically […] compound, final DMSO <=0.5%). The transport solution (TL) is applied to the apical or basolateral donor side for measuring A-B or B-A permeability (3 filter replicates), respectively. The receiver side contains HTP-4 buffer supplemented with 2% BSA. Samples are collected at the start and end of experiment from the donor and at various time intervals for up to 2 hours also from the receiver side for concentration measurement by LC-MS/MS or scintillation counting. Sampled receiver volumes are is replaced with fresh receiver solution.
The apparent permeability coefficients (PEAB and PEBA) and efflux ratios (PEBA/PEAB) of selected compounds in the Caco-2 drug transport assay described above are listed in Table 17.
For orientation: Caco-2 cells form a polarised layer with tight junctions and transporters.

Each structure is given as a SMILES string.

Take `N#Cc1ccc(C2C3=C(CCCC3=O)N(c3cccc(C(F)(F)F)c3)C(=O)N2C(=O)NCCO)cc1` (stereo not drawn) [Example 39.3]: the Papp A→B at 10 nM (Caco-2 monolayers, apical-to-basal, pH 7.2, 37° C., read-out: PEAB) came to 12.8 ×10⁻⁶ cm/s. Also, the Papp B→A at 10 nM (Caco-2 monolayers, basal-to-apical, pH 7.2, 37° C., read-out: PEBA) came out at 76.5 ×10⁻⁶ cm/s. The efflux ratio at 10 nM (pH 7.2, Caco-2, PEBA/PEAB) worked out at 6.

In general, efflux ratio refers to the permeability from basolateral to apical divided by that in the opposite direction, in the common usage.

Values taken from patent publication US9115093B2, “Substituted bicyclic dihydropyrimidinones and their use as inhibitors of neutrophil elastase activity” (Boehringer Ingelheim International GmbH, priority 2013, dated 2015).
